Laboratory results taken from US20140235533A1, “DIHYDROFURAN DERIVATIVES AS INSECTICIDAL COMPOUNDS” (SYNGENTA PARTICIPATIONS AG, priority 2011, published 2014).

How the values were obtained:
Heliothis virescens = Heliothis virescens (tobacco budworm) egg test on artificial diet; assay type: in vivo; conditions: 96 h, 200 ppm (concentration in well 18 ppm), eggs 0-24 h old on artificial diet, egg mortality, larval mortality, growth regulation after 4 days
Method: Heliothis virescens (Tobacco Budworm):
Eggs (0-24 h old) were placed in 24-well microtiter plate on artificial diet and treated with test solutions at an application rate of 200 ppm (concentration in well 18 ppm) by pipetting. After an incubation period of 4 days, samples were checked for egg mortality, larval mortality, and growth regulation. The following compound gave at least 80% control of Heliothis virescens: A1, A2, A03, A05, A06, A07, A08, A09, A10, A11, A12, A13, A14, A15, A16, A17, A18, A19, A20, A21, A22, A25, A26, A27, A31, A32, A34, A37, A39, A40, A42, A44, A45, A46, A47, A48, A49, A50, A51, A52, A53, B1**.

Plutella xylostella = Plutella xylostella (diamond back moth) artificial diet MTP test; assay type: in vivo; conditions: 144 h, 200 ppm (concentration in well 18 ppm), L2 larvae, larval mortality and growth regulation after 6 days
Method: Plutella xylostella (Diamond Back Moth): 24-well microtiter plate (MTP) with artificial diet was treated with test solutions at an application rate of 200 ppm (concentration in well 18 ppm) by pipetting. After drying, the MTPs were infested with L2 larvae (7-12 per well). After an incubation period of 6 days, samples were checked for larval mortality and growth regulation.

| Compound | pest or weed control at 200 ppm (Heliothis virescens) [%] | pest or weed control at 200 ppm (Plutella xylostella) [%] |
| --- | --- | --- |
| O=C(/C=C/c1ccccc1F)NCc1ccc(C2=COC(c3cc(Cl)cc(Cl)c3)(C(F)(F)F)C2)cc1Cl (stereo not shown) [Compound A16, (E)-N-[[2-chloro-4-[2-(3,5-dichlorophenyl)-2-(trifluoromethyl)-3H-furan-4-yl]phenyl]methyl]-3-(2-fluorophenyl)prop-2-enamide] | ≥ 80 |  |
| O=C(NCc1ccc(C2=COC(c3cc(Cl)cc(Cl)c3)(C(F)(F)F)C2)cc1Cl)c1ccc(O)c(F)c1 (stereo not shown) [Compound A52, N-[[2-chloro-4-[2-(3,5-dichlorophenyl)-2-(trifluoromethyl)-3H-furan-4-yl]phenyl]methyl]-3-fluoro-4-hydroxy-benzamide] | ≥ 80 | ≥ 80 |
| Cc1onc(-c2ccccc2)c1C(=O)NCc1ccc(C2=COC(c3cc(Cl)cc(Cl)c3)(C(F)(F)F)C2)cc1Cl (stereo not shown) [Compound A45, N-[[2-chloro-4-[2-(3,5-dichlorophenyl)-2-(trifluoromethyl)-3H-furan-4-yl]phenyl]methyl]-5-methyl-3-phenyl-isoxazole-4-carboxamide] | ≥ 80 |  |
| O=C(NCc1ccc(C2=COC(c3cc(Cl)cc(Cl)c3)(C(F)(F)F)C2)cc1Cl)c1cnnc2ccccc12 (stereo not shown) [Compound A34, N-[[2-chloro-4-[2-(3,5-dichlorophenyl)-2-(trifluoromethyl)-3H-furan-4-yl]phenyl]methyl]cinnoline-4-carboxamide] | ≥ 80 | ≥ 80 |
| O=C(NCc1ccc(C2=COC(c3cc(Cl)cc(Cl)c3)(C(F)(F)F)C2)cc1Cl)c1ccc2sccc2c1 (stereo not shown) [Compound A37, N-[[2-chloro-4-[2-(3,5-dichlorophenyl)-2-(trifluoromethyl)-3H-furan-4-yl]phenyl]methyl]benzothiophene-5-carboxamide] | ≥ 80 |  |
| O=C(/C=C/c1ccccc1Cl)NCc1ccc(C2=COC(c3cc(Cl)cc(Cl)c3)(C(F)(F)F)C2)cc1Cl (stereo not shown) [Compound A17, (E)-N-[[2-chloro-4-[2-(3,5-dichlorophenyl)-2-(trifluoromethyl)-3H-furan-4-yl]phenyl]methyl]-3-(2-chlorophenyl)prop-2-enamide] | ≥ 80 |  |
| O=C(NCc1ccc(C2=COC(c3cc(Cl)cc(Cl)c3)(C(F)(F)F)C2)cc1Cl)c1ccc2c(c1)OCCCO2 (stereo not shown) [Compound A32, N-[[2-chloro-4-[2-(3,5-dichlorophenyl)-2-(trifluoromethyl)-3H-furan-4-yl]phenyl]methyl]-3,4-dihydro-2H-1,5-benzodioxepine-7-carboxamide] | ≥ 80 |  |
| O=C(NCc1ccc(C2=COC(c3cc(Cl)cc(Cl)c3)(C(F)(F)F)C2)cc1Cl)c1ccc2nsnc2c1 (stereo not shown) [Compound A21, N-[[2-chloro-4-[2-(3,5-dichlorophenyl)-2-(trifluoromethyl)-3H-furan-4-yl]phenyl]methyl]-2,1,3-benzothiadiazole-5-carboxamide] | ≥ 80 |  |
| O=C(COc1ccc(Cl)cc1)NCc1ccc(C2=COC(c3cc(Cl)cc(Cl)c3)(C(F)(F)F)C2)cc1Cl (stereo not shown) [Compound A25, N-[[2-chloro-4-[2-(3,5-dichlorophenyl)-2-(trifluoromethyl)-3H-furan-4-yl]phenyl]methyl]-2-(4-chlorophenoxy)acetamide] | ≥ 80 |  |
| O=C(NCc1ccc(C2=COC(c3cc(Cl)cc(Cl)c3)(C(F)(F)F)C2)cc1Cl)c1cc(Cl)ccc1Cl (stereo not shown) [Compound A28, 2,5-dichloro-N-[[2-chloro-4-[2-(3,5-dichlorophenyl)-2-(trifluoromethyl)-3H-furan-4-yl]phenyl]methyl]benzamide] |  | ≥ 80 |
| O=C(NCc1ccc(C2=COC(c3cc(Cl)cc(Cl)c3)(C(F)(F)F)C2)cc1Cl)c1ccc(-c2ccccn2)s1 (stereo not shown) [Compound A42, N-[[2-chloro-4-[2-(3,5-dichlorophenyl)-2-(trifluoromethyl)-3H-furan-4-yl]phenyl]methyl]-5-(2-pyridyl)thiophene-2-carboxamide] | ≥ 80 |  |
